Test results from article PMC6783830 (Viruses, 2019).
Read-outs that look alike come from different tables or passages of the source.

Key:
VSV-AcGFP [1] = format: cell-based, Vesicular stomatitis virus in BHK-21 cells (hamster); settings: 10 µM
VSV [2] = experiment: microbe, parasite or virus in culture; settings: Vesicular stomatitis virus, BHK-21, in Mesocricetus auratus, 24 h, read-out: Anti-VSV Activity IC50 (VSV-induced metabolic shut-down)
CHPV [3] = system: CHPV
VSV RNP = VSV RNP (Vesicular stomatitis Indiana virus, UniProt P03523); experiment: biochemical; format: biochemical; settings: for inhibition at 20 µM: read-out: % Inhibition mRNA Synthesis (In vitro Transcription)
RABV [4] = system: RABV
HPIV-3 [5] = system: HPIV-3
VSV [6] = experiment: microbe, parasite or virus in culture; format: cell-based; settings: Vesicular stomatitis virus, BHK-21, in Mesocricetus auratus, 24 h, read-out: % Inhibition Metabolic Shut-down (CCK Assay)
HeLa cells [7] = system: HeLa cells
[8] = biological target: CHPV RdRp (L and P proteins) (Chandipura virus, UniProt P13179); experiment: biochemical; settings: read-out: inhibition of CHPV AC synthesis
HPIV-3 RNP = HPIV-3 RNP (Human parainfluenza 3 virus, UniProt P12577); format: biochemical, Human parainfluenza virus 3; settings: at 10 µM
BHK-21 cells = settings: at 100 µM
VSV [9] = experiment: microbe, parasite or virus in culture; format: cell-based; settings: Vesicular stomatitis virus, BHK-21, in Mesocricetus auratus, 24 h, read-out: % Inhibition Nuclear Condensation (Cell Imaging)
VSV [10] = system: VSV
VSV-AcGFP [11] = format: cell-based, Vesicular stomatitis virus in BHK-21 cells (hamster); settings: 10 µM; remark: listed apart in the source
VSV L protein = VSV L protein (Vesicular stomatitis Indiana virus, UniProt P03523); experiment: biochemical; format: biochemical
in vitro [12] = settings: hamster
VSV [13] = format: cell-based, Vesicular stomatitis virus in BHK-21 cells (hamster)
VSV [14] = experiment: microbe, parasite or virus in culture; settings: Vesicular stomatitis virus, HeLa, in Homo sapiens, 65 h, read-out: Anti-VSV Activity IC50 (VSV-induced metabolic shut-down)
[15] = biological target: VSV L protein (PRNTase domain) (Vesicular stomatitis Indiana virus, UniProt P03523); format: biochemical; settings: at 10 µM
CHPV RNP = CHPV RNP (Chandipura virus, UniProt P13179); experiment: biochemical
[16] = biological target: VSV RdRp complex (L and P proteins on N–RNA) (Vesicular stomatitis Indiana virus, UniProt P03523); format: biochemical
HeLa cells [17] = system: HeLa cells; remark: listed apart in the source
CHPV [18] = experiment: microbe, parasite or virus in culture; settings: Chandipura virus, BHK-21, in Mesocricetus auratus, 24 h, read-out: Anti-CHPV Activity IC50 (CHPV-induced metabolic shut-down)
RABV [19] = experiment: microbe, parasite or virus in culture; settings: Lyssavirus rabies, in mouse/rat NG108-15, 48 h, read-out: Anti-RABV activity IC50 (RABV gene expression, luciferase)
in vitro [20] = settings: human
HPIV-3 [21] = experiment: microbe, parasite or virus in culture; settings: Human respirovirus 3, HeLa, 72 h, read-out: Anti-HPIV-3 activity IC50

VSV L protein, sequence (P03523 whole entry, looked up): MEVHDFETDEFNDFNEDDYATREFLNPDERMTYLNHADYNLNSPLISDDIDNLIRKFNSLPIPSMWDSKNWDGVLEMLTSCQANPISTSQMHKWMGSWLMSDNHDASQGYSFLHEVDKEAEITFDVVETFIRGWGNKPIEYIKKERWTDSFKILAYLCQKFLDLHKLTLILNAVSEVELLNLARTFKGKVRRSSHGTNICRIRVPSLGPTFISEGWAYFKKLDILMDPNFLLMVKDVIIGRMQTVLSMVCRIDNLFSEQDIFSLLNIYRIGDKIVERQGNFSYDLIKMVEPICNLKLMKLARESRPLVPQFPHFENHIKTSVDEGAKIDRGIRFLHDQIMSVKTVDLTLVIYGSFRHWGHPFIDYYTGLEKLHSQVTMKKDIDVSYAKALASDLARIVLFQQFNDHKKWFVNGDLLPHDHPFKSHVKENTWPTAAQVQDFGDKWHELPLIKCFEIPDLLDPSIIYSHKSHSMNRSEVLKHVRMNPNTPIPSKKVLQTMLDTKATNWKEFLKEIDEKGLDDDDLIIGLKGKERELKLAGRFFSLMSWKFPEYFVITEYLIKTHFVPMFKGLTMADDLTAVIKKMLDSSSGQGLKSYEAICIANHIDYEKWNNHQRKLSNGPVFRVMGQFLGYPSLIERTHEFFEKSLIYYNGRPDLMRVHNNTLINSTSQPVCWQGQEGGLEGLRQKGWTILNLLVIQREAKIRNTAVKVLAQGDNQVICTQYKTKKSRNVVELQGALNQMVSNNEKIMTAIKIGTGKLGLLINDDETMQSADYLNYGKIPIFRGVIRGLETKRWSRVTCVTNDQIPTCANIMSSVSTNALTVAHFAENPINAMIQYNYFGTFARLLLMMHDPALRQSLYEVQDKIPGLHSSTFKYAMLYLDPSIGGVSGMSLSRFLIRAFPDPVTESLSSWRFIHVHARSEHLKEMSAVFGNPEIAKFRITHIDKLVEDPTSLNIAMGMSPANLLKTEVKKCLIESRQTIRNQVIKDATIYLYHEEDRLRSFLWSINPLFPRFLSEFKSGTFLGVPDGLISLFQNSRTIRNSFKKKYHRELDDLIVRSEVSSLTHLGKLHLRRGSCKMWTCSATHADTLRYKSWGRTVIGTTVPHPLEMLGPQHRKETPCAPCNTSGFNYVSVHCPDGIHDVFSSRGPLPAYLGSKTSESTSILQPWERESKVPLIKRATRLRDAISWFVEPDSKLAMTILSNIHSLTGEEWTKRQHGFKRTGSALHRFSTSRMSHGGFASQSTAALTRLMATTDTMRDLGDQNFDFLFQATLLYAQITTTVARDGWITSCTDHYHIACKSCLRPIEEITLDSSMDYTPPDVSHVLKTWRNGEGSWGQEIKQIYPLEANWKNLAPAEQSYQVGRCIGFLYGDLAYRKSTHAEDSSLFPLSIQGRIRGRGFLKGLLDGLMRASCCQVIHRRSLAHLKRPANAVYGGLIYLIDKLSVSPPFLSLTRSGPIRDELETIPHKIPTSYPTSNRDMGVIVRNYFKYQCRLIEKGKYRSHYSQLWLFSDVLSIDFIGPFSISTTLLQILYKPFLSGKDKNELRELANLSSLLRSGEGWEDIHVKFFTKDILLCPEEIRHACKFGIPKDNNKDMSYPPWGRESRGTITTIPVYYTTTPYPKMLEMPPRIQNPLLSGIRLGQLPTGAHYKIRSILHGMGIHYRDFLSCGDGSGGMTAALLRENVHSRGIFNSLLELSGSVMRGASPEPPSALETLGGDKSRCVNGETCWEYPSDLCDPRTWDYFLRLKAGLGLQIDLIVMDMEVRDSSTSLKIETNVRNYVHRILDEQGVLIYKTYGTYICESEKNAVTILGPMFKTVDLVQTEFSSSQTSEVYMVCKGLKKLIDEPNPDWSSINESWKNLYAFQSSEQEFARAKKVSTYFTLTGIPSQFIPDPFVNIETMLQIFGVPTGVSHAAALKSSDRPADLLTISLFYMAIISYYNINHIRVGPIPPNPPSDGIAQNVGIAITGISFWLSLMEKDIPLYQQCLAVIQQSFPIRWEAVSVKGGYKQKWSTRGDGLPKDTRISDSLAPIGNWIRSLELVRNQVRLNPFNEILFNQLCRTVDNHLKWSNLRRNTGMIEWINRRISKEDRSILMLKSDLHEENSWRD
VSV RNP, sequence (P03523 whole entry, looked up): as above

COc1ccc(C2CC(=O)Nc3cc(O)c(C)cc32)cc1Cn1cccn1 (stereo not shown) [VPI A]
nuclear condensation and AcGFP expression in infected cells (VSV-AcGFP [1]): abrogate
IC50 (VSV [2]): 2 ± 0.1 µM
Anti-CHPV Activity SI (CC50/IC50) (CHPV [3]): >13
IC50 (CHPV [3]; read-out: Anti-CHPV Activity IC50 (CHPV-induced metabolic shut-down)): 7.9 ± 0.4 µM
IC50 (VSV RNP): 0.81 ± 0.04 µM
VSV LeRNA synthesis (VSV RNP): represses
inhibition at 20 µM (VSV RNP): 99%
Anti-RABV activity SI (CC50/IC50) (RABV [4]): > 4
antiviral effects against HPIV-3 (HPIV-3 [5]): neither of the compounds showed any antiviral effects
inhibition at 17 µM (VSV [6]): 105%
Cytotoxicity CC50 (HeLa cells [7]): > 1 0 0 µM
inhibition at 1 µM ([8]; 1 µM): 77%
inhibition at 10 µM ([8]; 10 µM): 97%
inhibition of in vitro mRNA synthesis of HPIV-3 (HPIV-3 RNP): not
cytotoxic effects on BHK-21 cells (BHK-21 cells): little or no cytotoxic effects
inhibition at 17 µM (VSV [9]): 98%
Cytotoxicity CC50 (NA cells): > 1 0 0 µM
VSV-induced cell rounding and detachment (VSV [10]): inhibited
IC50 (VSV [10]; read-out: Anti-VSV Activity IC50 (VSV-induced metabolic shut-down)): 0.42 ± 0.02 µM
step of VSV infection inhibited (time-of-addition) (VSV-AcGFP [11]): inhibits VSV infection at an early post-entry step
AC synthesis with the VSV L and P proteins (VSV L protein): inhibit
inhibition at 1 µM (VSV L protein; 1 µM, read-out: inhibition of AC synthesis with the VSV L protein alone): 85%
AC synthesis with the VSV L and P proteins (Figure S4) (VSV L protein; 10 µM): strongest
inhibition at 10 µM (VSV L protein; 10 µM, read-out: inhibition of AC synthesis with the VSV L protein alone): 100%
CC50 (in vitro [12]): > 100 µM
concentration that almost completely abolished VSV production (VSV [13]): ≥ 12.5 µM
IC50 (VSV [14]): 0.4 µM
capping activity of the PRNTase domain in the VSV L protein [15]: slightly reduced
IC50 (CHPV RNP): 3.3 ± 0.4 µM
synthesis of LeRNA1–18 (pulse) [16]: inhibits
toxicity to HeLa cells (HeLa cells [17]): less toxic
IC50 (CHPV [18]): 8 µM
IC50 (RABV [19]): 26 µM
CC50 (in vitro [20]): > 100 µM

COc1cc2c(cc1C1CC(=O)Nc3cc(O)c(C)cc31)CCC2 (stereo not shown) [VPI E]
inhibition at 20 µM (VSV RNP): 72%
inhibition at 17 µM (VSV [6]): 50%
inhibition at 17 µM (VSV [9]): 94%

Cc1cc2c(cc1O)NC(=O)CC2c1ccc(-c2cc[nH]n2)o1 (stereo not shown) [VPI F]
effect on VSV mRNA synthesis, in words (VSV RNP; at 20 µM): weak inhibitory effect
inhibition at 20 µM (VSV RNP): 34%
inhibition at 17 µM (VSV [6]): 48%
inhibition at 17 µM (VSV [9]): 69%
AC synthesis with the VSV L and P proteins (Figure S4) (VSV L protein; 10 µM): weakest

NC(=O)c1ncn([C@@H]2O[C@H](CO)[C@@H](O)[C@H]2O)n1 [Ribavirin, reference compound]
IC50 (VSV [2]): > 100 µM
Anti-CHPV Activity SI (CC50/IC50) (CHPV [3]): <1
Anti-HPIV-3 activity SI (CC50/IC50) (HPIV-3 [5]): > 5
Cytotoxicity CC50 (HeLa cells [7]): > 1 0 0 µM
IC50 (HPIV-3 [21]): 21 µM
CC50 (in vitro [12]): 86 ± 0.5 µM
IC50 (VSV [14]): 15 ± 1 µM
IC50 (CHPV [18]): > 100 µM
CC50 (in vitro [20]): > 100 µM

Cc1cc2c(cc1O)NC(=O)CC2c1cc(C(C)(C)C)[nH]n1 (stereo not shown) [VPI B]
nuclear condensation and AcGFP expression in infected cells (VSV-AcGFP [1]): abrogate
IC50 (VSV [2]): 6 µM
Anti-CHPV Activity SI (CC50/IC50) (CHPV [3]): >9
inhibition at 20 µM (VSV RNP): 89%
inhibitory effect on RABV gene expression (RABV [4]): little or no inhibitory effect
antiviral effects against HPIV-3 (HPIV-3 [5]): neither of the compounds showed any antiviral effects
inhibition at 17 µM (VSV [6]): 102%
Cytotoxicity CC50 (HeLa cells [7]): > 1 0 0 µM
cytotoxic effects on BHK-21 cells (BHK-21 cells): little or no cytotoxic effects
inhibition at 17 µM (VSV [9]): 92%
Cytotoxicity CC50 (NA cells): > 1 0 0 µM
VSV-induced cell rounding and detachment (VSV [10]): inhibited
CC50 (in vitro [12]): > 100 µM
concentration that almost completely abolished VSV production (VSV [13]): ≥ 25 µM
IC50 (VSV [14]): 1 µM
toxicity to HeLa cells (HeLa cells [17]): less toxic
IC50 (CHPV [18]): 11 ± 1 µM
CC50 (in vitro [20]): > 100 µM

Cc1cc2c(cc1O)NC(=O)CC2c1ccc(Oc2ccccc2)cc1 (stereo not shown) [VPI G]
inhibition at 20 µM (VSV RNP): 68%
inhibition at 17 µM (VSV [6]): 46%
inhibition at 17 µM (VSV [9]): 54%

O=C(O)CN(CCN(CC(=O)O)CC(=O)O)CC(=O)O [EDTA, reference compound]
synthesis of LeRNA1–18 (pulse) [16]: abolishes

Cc1cc2c(cc1O)NC(=O)CC2c1c[nH]nc1-c1ccc(F)cc1 (stereo not shown) [VPI C]
inhibition at 20 µM (VSV RNP): 72%
inhibition at 17 µM (VSV [6]): 58%
inhibition at 17 µM (VSV [9]): 63%

COc1cc2c(cc1C1CC(=O)Nc3cc(O)c(C)cc31)OCCCO2 (stereo not shown) [VPI H]
inhibition at 20 µM (VSV RNP): 73%
inhibition at 17 µM (VSV [6]): 34%
inhibition at 17 µM (VSV [9]): 53%

Cc1cc2c(cc1O)NC(=O)CC2c1cc2ccccc2n1C (stereo not shown) [VPI D]
inhibition at 20 µM (VSV RNP): 72%
inhibition at 17 µM (VSV [6]): 55%
inhibition at 17 µM (VSV [9]): 57%
